Patent US20120225889A1, “USE OF MACROCYCLIC LACTONE DERIVATIVES FOR THE TREATMENT OF INFLAMMATORY DISORDERS” (PIRAMAL LIFE SCIENCES LIMITED, priority 2010, published 2012)
Read-outs that look alike come from different tables or passages of the source.

Tests used:
CEBPβ = experiment: Gene expression profile using RTQ-PCR: CEBPβ; format: cell-based, human; details: 3 μM
Method: The effect of the compound of example 7 was measured in stimulated untreated cells from the monocytic cell line (THP-1), human monocytes and synovial cells from rheumatoid arthritis patient. The effect of the compound in the THP-1 cell line was measured in terms of gene expression and was expressed as fold changes as compared to the cell stimulated control with no drug treatment.
THP-1 cells, human monocytes and synovial cells were treated with compound of example 7 or vehicle (0.5% DMSO). Total RNA isolation using a commercial RNA extraction kit (Qiagen Corporation, Germany) The first-strand cDNA was synthesized from total RNA using first strand cDNA synthesis kit from Invitrogen Corporation (California, USA). This was followed by real time quantitative polymerase chain reaction (RTQ PCR) using gene specific primers and standard thermal program of initial denaturation at 95° C. for 5 min and cycles of 95° C. for 10 seconds, followed by 60° C. for 30 seconds (Realplex PCR machine from Eppendorf, Germany). Quantitative measurement of products made during PCR cycles was normalized against a housekeeping gene (Actin) and was used to measure the gene expression as fold changes as compared to respective control.

IL-2 = experiment: Cytokine release assay in hPBMCs: IL-2; format: cell-based; details: Homo sapiens
Method: (§1) hPBMCs were obtained from healthy donors by centrifugation of heparinized venous blood over Ficoll/Hypaque solution (Histopaque-1077, Sigma, USA). Isolated hPBMCs were suspended in RPMI 1640 culture medium supplemented with 10% FBS and seeded at a density of 50,000 cells/well in a 96-well plate (Nunc, USA). The cells were incubated at 37° C., 5% CO2 for a period of 24 h. These cells were used for the lymphocyte proliferation as well as cytokine release assay.
(§2) The plated cells were treated with different concentrations of the test compound (prepared as mM stock in DMSO and diluted with DMSO to achieve the following final concentrations in the assay: 100, 10, 1, 0.1, 0.01, 0.001, 0.0001, 0.00001 and 0.000001 μM) and incubated for 30 min. The cells were then stimulated with PHA (prepared as 1 mg/mL stock in RPMI 1640 culture medium and used at a final concentration of 5 μg/mL). FK506 was used as a standard. The plates were incubated at 37° C., 5% CO2 for 48 h. The cytokines in the supernatant collected were detected using ELISA kit (BD biosciences, USA). The cytokines evaluated in the assay were TNF-α, IL-2, IL-6, and IFN-γ.

[1] = tested on: C57BL mice with DSS induced colitis; experiment: DSS induced murine model of acute colitis; format: in vivo
Method: The assay was designed as in references, Laboratory Investigation, 80, 1541, (2000), and Faseb Journal, 19:792, (2005), the disclosure of which is incorporated by reference for the teaching of the assay.
Normal, in-house bred female C57BL mice weighing […], 8-10 weeks old, were used. The animals were housed in individually ventilated cages, three per cage, throughout the experimental period.
Experimental colitis was induced in mice by replacing drinking water with 3% (w/v) DSS (molecular weight 36,000-50,000, MP Biomedicals Inc., USA) solution. This solution was prepared in water, freshly every alternate day and was made available to the experimental animals ad libitum, from day 0 to day 10. A batch of six naïve animals received water instead of DSS during this period.
The animals were weighed every day and the record of body weights was maintained. The suspension of test compound (was prepared at a concentration of 0.05 mg/mL, in 0.5% (w/v) CMC after mixing with minimum quantity of Tween 80 necessary to wet the compound, and was administered orally, daily once to the animals at a volume of 10 mL/kg (dose=0.5 mg/kg). This treatment was initiated on day 6 and continued up to day 10. During this period, DSS control animals and naïve animals received CMC (mixed in the same proportion with 100 μL of Tween 80) at a dose of 10 mL/kg, daily once.
On day 11, the animals were sacrificed, blood was collected in heparinized tubes and the following parameters were studied; • 1. Rectal bleeding/blood in faeces • 2. Fecal consistency • 3. Bleeding in colon • 4. Colon weight • 5. Colon length • 6. Change in body weight on day 11 from that of day 0 • 7. Blood hemoglobin concentration
The data are represented in the following tables (Table 8, Table 9 and Table 10) as quantifiable parameters, descriptive parameters and actual scores. The descriptive parameters are represented by DAI. DAI is a research tool used to quantify the symptoms of the colitic animals. DAI is used in order to define response of the treatment or remission of the disease. In order to achieve this, various factors are studied. […] DAI is the sum of the scores of all factors.
On the last day of compound treatment (compound of example 7, 0.5 mg/kg, p.o., […]) the animals were euthanized humanely, blood samples were collected and the colon was excised. Anterior part of the colon was washed with normal saline to remove fecal material and then fixed in 10% NBF (Neutral buffered formalin). After 10 days of fixation the colon specimens were trimmed and processed overnight using automated tissue processor. Following day the specimens were blocked in paraffin and exposed to cold shock overnight at −18° C. Sections (5μ) were made from cross section of the colonic lumen and stained with routine Hematoxyllin (Sigma, USA) & Eosin (Loba Chemie, India) and mounted permanently. Slides were dried for 24 h and then graded histologically. The results were expressed as histological scores. Histological analysis was based on various parameters like presence of inflammatory cells, erosions, crypt destruction, edema and overall architectural changes graded on a score of 0 to 3, wherein 0 corresponds to absence, 1 corresponds to changes in 25% of the circumference of the colonic lumen, 2 corresponds to up to 50% and 3 corresponds to more than 50% of colonic circumference getting affected. All the scores were summed up to arrive to a total histological score for each section. Two random sections were graded and mean was calculated.

IFN-γ = experiment: Cytokine release assay in hPBMCs: IFN-γ; format: cell-based; details: Homo sapiens
Method: as §1, §2

[2] = day 11, DSS mice, 0.5 mg/kg orally daily once, day 6 to day 10
[3] = score 0-3 (Table 9), DSS mice, 0.5 mg/kg orally daily once, day 6 to day 10

C/C=C/C(O)C(C)/C=C/C(=N\O)C(C)C(O)C(C)C1OC(=O)/C(OC)=C/C(C)=C/C(C)C(O)C(CC)C(O)C(C)C/C(C)=C/C=C/C1OC (stereo not shown) [Compound of example 7, (3Z,5E,13E,15E)-18-((5Z,6E,10E)-3,9-Dihydroxy-5-(hydroxymino)-4,8-dimethyldodeca-6,10-dien-2-yl)-9-ethyl-8,10-dihydroxy-3,17-dimethoxy-5,7,11,13-tetramethyl oxacyclooctadeca-3,5,13,15-tetraen-2-one]
CEBPβ gene expression (CEBPβ; Human monocytes, 3 h, ± SE, N = 3): −2.2 + 0.3 log fold change | CEBPβ gene expression (CEBPβ; Synovial cells, 12 h, N = 1): 0.4 log fold change | CEBPβ gene expression (CEBPβ; THP-1 cells, 12 h, ± SE, N = 3): −0.2 + 0.5 log fold change | IC50 (IL-2; Table 3: PHA-PMA induced hPBMC's, 48 h, read-out: IL-2 IC50): 0.005 µM | IC50 (IL-2; Table 4: mitogen stimulated production from hPBMC's, read-out: IL-2 (IC50 μM)): 0.007 µM | Group mean histological score (colon) ([1]; 0.5 mg/kg, p.o., b.i.d, DSS control 7.50+0.96): 5.33+0.99 | histological damage (colon) ([1]; DSS induced colitic C57BL mice): confer protection against histological damage | Hbg % ([1]; blood hemoglobin, day 11, DSS mice, 0.5 mg/kg orally daily once, day 6 to day 10): 10.77 ± 0.48 g % | Colon length [1, 2]: 7.33 ± 0.30 | Colon weight mg [1, 2]: 273.8 ± 8.93 mg | Colon weight mg per cm [1, 2]: 37.6 ± 1.8 mg per cm | Change in body weight ([1]; day 11 from day 0, DSS mice, 0.5 mg/kg orally daily once, day 6 to day 10): +0.57 ± 0.28 | severity of colitis ([1]; orally 0.5 mg/kg, mice with DSS induced colitis): reduces the severity of colitis | Blood in colon score [1, 3]: 0.61 ± 0.30 | Fecal consistency score [1, 3]: 1.0 ± 0.50 | Rectal bleeding score [1, 3]: 0.18 ± 0.15 | Disease activity index ([1]; sum of the scores of all features, DSS mice, 0.5 mg/kg orally daily once, day 6 to day 10): 1.67 ± 0.47 | IC50 (IFN-γ; Table 3: PHA-PMA induced hPBMC's, 48 h, read-out: IFN-γ IC50): 0.02 µM | IC50 (IFN-γ; Table 4: mitogen stimulated production from hPBMC's, read-out: IFN-γ (IC50 μM)): 0.1 µM
